This is an account of results in patent US5238921A, “Oligopeptide, angiotensin converting enzyme inhibitors, hypotensive agent, and method for treatment of hypertension” (Agency of Industrial Science and Technology, priority 1990, dated 1993).

SMILES strings stand for the structures. Non-standard residues stand in square brackets, D forms with d. Residues, ends and D or L forms follow the SMILES beside them.

In one experiment the target is T1, angiotensin converting enzyme (Oryctolagus cuniculus, UniProt P12822).
T1 construct: the supernatant was further purified with hydroxyapatite to obtain an angiotensin converting enzyme solution; from tissue; host or cells: rabbit lung (acetone powder)
T1 sequence (P12822 34-1310): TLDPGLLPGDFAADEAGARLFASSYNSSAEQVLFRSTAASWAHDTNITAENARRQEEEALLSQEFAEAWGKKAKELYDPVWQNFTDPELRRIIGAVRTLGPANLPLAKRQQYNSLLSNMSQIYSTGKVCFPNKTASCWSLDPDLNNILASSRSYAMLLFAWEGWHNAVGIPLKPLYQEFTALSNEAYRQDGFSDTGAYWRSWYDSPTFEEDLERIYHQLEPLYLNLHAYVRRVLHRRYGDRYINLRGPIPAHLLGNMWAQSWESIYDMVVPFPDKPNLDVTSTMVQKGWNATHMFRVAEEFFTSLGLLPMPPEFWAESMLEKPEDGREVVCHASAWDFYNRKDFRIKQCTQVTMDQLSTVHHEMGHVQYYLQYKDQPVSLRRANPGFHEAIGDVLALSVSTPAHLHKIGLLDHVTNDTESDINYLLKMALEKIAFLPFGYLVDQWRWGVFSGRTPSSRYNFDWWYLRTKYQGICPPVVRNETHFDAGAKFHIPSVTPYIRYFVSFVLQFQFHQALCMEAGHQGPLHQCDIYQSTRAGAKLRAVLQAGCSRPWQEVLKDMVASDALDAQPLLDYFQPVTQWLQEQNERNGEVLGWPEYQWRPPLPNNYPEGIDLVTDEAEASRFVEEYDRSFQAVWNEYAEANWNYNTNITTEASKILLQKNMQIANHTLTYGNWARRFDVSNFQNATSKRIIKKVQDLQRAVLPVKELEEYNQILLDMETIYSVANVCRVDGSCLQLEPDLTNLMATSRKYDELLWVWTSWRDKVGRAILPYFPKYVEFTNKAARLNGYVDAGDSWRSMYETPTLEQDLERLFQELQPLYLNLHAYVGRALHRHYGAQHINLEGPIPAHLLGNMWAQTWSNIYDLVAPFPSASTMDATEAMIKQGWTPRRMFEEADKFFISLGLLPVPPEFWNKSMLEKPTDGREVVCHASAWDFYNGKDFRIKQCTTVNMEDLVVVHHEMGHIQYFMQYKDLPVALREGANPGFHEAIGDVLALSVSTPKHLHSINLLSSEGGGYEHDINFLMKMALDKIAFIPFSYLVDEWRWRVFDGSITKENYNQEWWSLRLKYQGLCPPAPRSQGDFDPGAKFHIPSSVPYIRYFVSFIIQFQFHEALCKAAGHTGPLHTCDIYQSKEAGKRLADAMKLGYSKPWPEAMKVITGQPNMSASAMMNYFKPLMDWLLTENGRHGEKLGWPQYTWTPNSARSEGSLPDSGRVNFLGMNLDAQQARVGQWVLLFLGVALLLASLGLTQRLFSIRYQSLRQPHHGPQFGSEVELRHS
Kind of experiment: ACE inhibition activity (hippuroylhistidylleucine substrate, hippuric acid absorbance at 228 nm). Format: biochemical, rabbit. Particulars: concentration at which the inhibition rate (E2) was found; not 50%. The procedure:
The ACE inhibition activity of the thus obtained present oligopeptides was measured as follows. Namely, first, 5 g of rabbit lung acetone powder was dissolved in 50 ml of 0.1M sodium borate buffer (pH 8.3), the solution was centrifuged under the conditions of 40,000 G for 40 minutes, and the supernatant was further purified with hydroxyapatite to obtain an angiotensin converting enzyme solution having an enzyme activity of 1 unit/mg protein.
0.03 ml portions of aqueous solutions containing in various concentrations any one of the present oligopeptides was placed in test tubes, 0.25 ml portions of hippuroylhistidylleucine (final concentration 5 mM; containing 300 mM NaCl) were added thereto, 0.1 ml portions of the above angiotensin converting enzyme solution were added, and reactions were carried out at 37° C. for 30 minutes.
Plural of such an experiment were conducted and the inhibition rate was calculated by the following equation: [formula]
For `CC(C)C[C@@H](N)C(=O)N[C@@H](CCCNC(=N)N)C(=O)N1CCC[C@H]1C(=O)O` [D--Leu--L--Arg--L--Pro, D-Leu-L-Arg-L-Pro] (H-[dL]-Arg-Pro-OH), the “Concentration giving the inhibition rate” value amounted to 45 µM.

On to `CC(C)C[C@H](N)C(=O)NCC(=O)N1CCC[C@H]1C(=O)O` [L--Leu--Gly--L--Pro, L-Leu-Gly-L-Pro] (H-Leu-Gly-Pro-OH), for which the “Concentration giving the inhibition rate” value stood at 60 µM. With `CC(C)C[C@H](N)C(=O)N[C@@H](CC(=O)O)C(=O)N1CCC[C@H]1C(=O)O` [L--Leu--L--Asp--L--Pro, L-Leu-L-Asp-L-Pro] (H-Leu-Asp-Pro-OH), the “Concentration giving the inhibition rate” value was 182 µM.

On to `CC(C)C[C@H](N)C(=O)N[C@@H](CCC(=O)O)C(=O)N1CCC[C@H]1C(=O)O` [L--Leu--L--Glu--L--Pro, L-Leu-L-Glu-L-Pro] (H-Leu-Glu-Pro-OH), for which the “Concentration giving the inhibition rate” value turned out to be 24 µM.

Regarding `CC(C)C[C@H](N)C(=O)N[C@H](C(=O)N1CCC[C@H]1C(=O)O)[C@@H](C)O` [L--Leu--L--Thr--L--Pro, L-Leu-L-Thr-L-Pro] (H-Leu-Thr-Pro-OH), the “Concentration giving the inhibition rate” value was found to be 3.4 µM. Take `CC(C)C[C@H](N)C(=O)N[C@@H](Cc1ccc(O)cc1)C(=O)N1CCC[C@H]1C(=O)O` [L--Leu--L--Tyr--L--Pro, L-Leu-L-Tyr-L-Pro] (H-Leu-Tyr-Pro-OH): the “Concentration giving the inhibition rate” value came out at 12 µM.

Staying with this experiment, now noted: line prints 50% inhibition rate instead of the word IC50; read-out: Concentration giving the inhibition rate (50%).
Consider `CC(C)C[C@H](N)C(=O)N[C@@H](C)C(=O)N1CCC[C@H]1C(=O)O` [L--Leu--L--Ala--L--Pro, L-Leu-L-Ala-L-Pro] (H-Leu-Ala-Pro-OH), for which the IC50 came out at 1.4 µM. Take `CC(C)C[C@H](N)C(=O)N[C@@H](Cc1c[nH]cn1)C(=O)N1CCC[C@H]1C(=O)O` [L--Leu--L--His--L--Pro, L-Leu-L-His-L-Pro] (H-Leu-His-Pro-OH): the IC50 was 80 µM.

For `CC(C)C[C@H](N)C(=O)N[C@@H](CCCCN)C(=O)N1CCC[C@H]1C(=O)O` [L--Leu--L--Lys--L--Pro, L-Leu-L-Lys-L-Pro] (H-Leu-Lys-Pro-OH), the IC50 came to 0.6 µM.

The same experiment, now with this note: rabbit lung ACE, 5 mM hippuroylhistidylleucine, 37° C. 30 minutes; read-out: IC50.
For `CC[C@H](C)[C@H](N)C(=O)N[C@@H](CCCNC(=N)N)C(=O)N[C@@H](C)C(=O)N[C@@H](CCC(N)=O)C(=O)N[C@@H](CCC(N)=O)C(=O)O` [L--Ile--Arg--L--Ala--L--Gln--L--Gln, L-Ile-L-Arg-L-Ala-L-Gln-L-Gln] (H-IRAQQ-OH), the IC50 was found to be 160 µM. On the same count and under the same terms, under `CC[C@H](C)[C@H](N)C(=O)N[C@@H](CCCNC(=N)N)C(=O)N[C@@H](C)C(=O)O` [L--Ile--L--Arg--L--Ala, L-Ile-L-Arg-L-Ala] (H-Ile-Arg-Ala-OH) stands 6.4 µM; under `CC(C)C[C@H](N)C(=O)N[C@@H](C)C(=O)N[C@@H](C)C(=O)O` [L--Leu--L--Ala--L--Ala, L-Leu-L-Ala-L-Ala] (H-Leu-Ala-Ala-OH), 13 µM.

Take `CC(C)C[C@H](N)C(=O)N[C@@H](CCCN=C(N)N)C(=O)N1CCC[C@H]1C(=O)O` [L--Leu--L--Arg--L--Pro, L-Leu-L-Arg-L-Pro] (H-Leu-Arg-Pro-OH): the IC50 was found to be 0.27 µM. Consider `CC(C)C[C@H](N)C(=O)N[C@@H](CC(N)=O)C(=O)N1CCC[C@H]1C(=O)O` [L--Leu--L--Asn--L--Pro, L-Leu-L-Asn-L-Pro] (H-Leu-Asn-Pro-OH), for which the IC50 was 35 µM. Still for that read-out and setting: then `CC(C)C[C@H](N)C(=O)N[C@@H](CCC(N)=O)C(=O)N1CCC[C@H]1C(=O)O` [L--Leu--L--Gln--L-- Pro, L-Leu-L-Gln-L-Pro] (H-Leu-Gln-Pro-OH), with 1.9 µM; and `CC(C)C[C@H](N)C(=O)N[C@@H](CCC(N)=O)C(=O)N[C@@H](CCC(N)=O)C(=O)O` [L--Leu--L--Gln--L--Gln, L-Leu-L-Gln-L-Gln] (H-Leu-Gln-Gln-OH), with 100 µM; and `CC(C)C[C@H](NC(=O)[C@@H](N)CC(C)C)C(=O)N1CCC[C@H]1C(=O)O` [L--Leu--L--Leu--L--Pro, L-Leu-L-Leu-L-Pro] (H-Leu-Leu-Pro-OH), with 57 µM. Same read-out and setting: under `CC(C)C[C@H](N)C(=O)N[C@@H](CO)C(=O)N1CCC[C@H]1C(=O)O` [L--Leu--L--Ser--L--Pro, L-Leu-L-Ser-L-Pro] (H-Leu-Ser-Pro-OH) stands 1.7 µM; under `CC(C)C[C@H](NC(=O)[C@@H](N)Cc1ccccc1)C(=O)N1CCC[C@H]1C(=O)O` [L--Phe--L--Leu--L--Pro, L-Phe-L-Leu-L-Pro] (H-Phe-Leu-Pro-OH), 210 µM; under `N[C@@H](Cc1ccccc1)C(=O)N[C@@H](Cc1ccc(O)cc1)C(=O)O` [L--Phe--L--Tyr, L-Phe-L-Tyr] (H-Phe-Tyr-OH), 25 µM. With `CC(C)[C@H](N)C(=O)N[C@@H](C)C(=O)N[C@@H](C)C(=O)O` [L--Val--L--Ala--L--Ala, L-Val-L-Ala-L-Ala] (H-Val-Ala-Ala-OH), the IC50 is 13 µM. Regarding `CC(C)[C@H](N)C(=O)N[C@@H](C)C(=O)N[C@@H](Cc1ccc(O)cc1)C(=O)O` [L--Val--L--Ala--L--Tyr, L-Val-L-Ala-L-Tyr] (H-Val-Ala-Tyr-OH), the IC50 turned out to be 16 µM. As for `CC(C)[C@H](N)C(=O)N[C@@H](CO)C(=O)N1CCC[C@H]1C(=O)O` [L--Val--L--Ser--Ser--L--Pro, L-Val-L-Ser-L-Pro] (H-Val-Ser-Pro-OH; N-terminus and C-terminus assumed), the IC50 amounted to 10 µM.

The test system of a further experiment is spontaneous hypertensive rats (SHR). Kind of experiment: Hypotensive activity in spontaneous hypertensive rats (Tail-Cuff method). As to conditions: 120 mg/kg intraperitoneally, maximum blood pressure before minus after administration ± S.E., p < 0.01 against saline control. Format: in vivo, rat. How it is done: 10-week old spontaneous hypertensive rats (SHR) (produced BY Nihon Rat Co., Ltd.,.male., weight 240 to 280 g, 4 to 6 animals per 1 group) were used as test animals. L-Leu-L-Arg-L-Pro obtained as in Example 12 was dissolved in physiological saline and 120 mg in terms of the effective ingredient of the solution was intraperitoneally administered per kg of animal. As control physiological saline was intraperitoneally administered. Blood pressure was measured before the administration and at regular intervals of time after the administration by the Tail-Cuff method using a bloodless sphygmomanometer for rats and mice TK-350 (produced by Unicom Co., Ltd.)
The results were shown in Table 2 by (Maximum blood pressure value before the administration-Maximum blood pressure value after the administration) ± S.E.
Turning to `CC(C)C[C@H](N)C(=O)N[C@@H](CCCNC(=N)N)C(=O)N1CCC[C@H]1C(=O)O` [L--Leu--L--Arg--L--Pro, L-Leu-L-Arg-L-Pro] (H-Leu-Arg-Pro-OH), the “Lowering of blood pressure (mm Hg) 5 hours later” value stood at 14 ± 5 mm Hg.
